{
  "source": "patent US20250340551A1",
  "about": "“SMALL MOLECULE MODULATORS OF STAT6” (Gilead Sciences, Inc., priority 2024, published 2025)",
  "data": [
    {"tested_on": "Eotaxin-3 (CCL26) release in human whole blood stimulated with IL-4", "assay": "Human whole blood eotaxin-3 assay (IL-4 stimulated, Eotaxin-3 release)", "type": "cell-based", "conditions": "Homo sapiens, 48 h", "method": "(§1) This was a human whole blood assay using recombinant human Interleukin 4 to stimulate the blood and measuring the ability of the test compounds to inhibit eotaxin-3 release. The biological activities of the test compounds have been tested in human whole blood stimulated with IL-4 measuring Eotaxin-3 release. The test compounds were added to 384 well clear flat-bottom plate in a 4-fold serial dilution in triplicates using a liquid handler. Human whole blood stabilized in lithium-heparin tubes was added in a volume of 65 μL per well, resulting in a final DMSO concentration of 0.5%. The plate is incubated for 2 h at 37° C. under 5% CO2/95% air. Subsequently, 5 μL of recombinant human IL-4 (R&D Systems, cat #204-ILB) was added to the wells to a final concentration of 400 pM. The plate was incubated for 48 h at 37° C. under 5% CO2/95% air. The plate was spun down for 10 minutes at 500×g and 20 μL supernatant was harvested and transferred to a 384 well v-bottom plate using a liquid handler and stored at −20° C. until further analysis. 10 μL supernatant was used to measure the level of Eotaxin-3 (CCL26) using Human Eotaxin-3 MSD kit from Mesocsale (Cat #K251UEK-4). The assay was performed according to the manufacture instructions.\n(§2) The data from the human whole blood eotaxin-3 assay is shown below for Examples 1u2, 1x1, 1af26, and 1af36 (where the effect in % is plotted against the test concentration in M on a log-scale).", "units": {"Emax": "%"}, "values": [
      {"smiles": "CNc1ccc(-c2ccnc3c2cc(CN2CC[C@@H](c4ccc(C(=O)N(C)C)cc4)C[C@@H]2C)n3C)nc1", "note": "(single isomer, unassigned) [Example 1o28]", "Emax": "< 20"},
      {"smiles": "CNc1ccc(-c2ccnc3c2cc(CN2CC[C@H](c4ccc(C(=O)N(C)C)cc4)C[C@H]2C)n3C)nc1", "note": "(single isomer, unassigned) [Example 1o29]", "Emax": "< 20"},
      {"smiles": "CNc1ccc(-c2ccnc3c2cc(CN2CC[C@@H](c4ccc(C(=O)N(C)C)cc4)[C@H](F)C2)n3C)nc1", "note": "(stereo in doubt) [Example 1o17, 4-((3S,4S)-3-fluoro-1-((1-methyl-4-(5-(methylamino)pyridin-2-yl)-1H-pyrrolo[2,3-b]pyridin-2-yl)methyl)piperidin-4-yl)-N,N-dimethylbenzamide]", "Emax": "< 20"}
    ]},
    {"tested_on": "Eotaxin-3 (CCL26) release in human whole blood stimulated with IL-4", "assay": "Human whole blood eotaxin-3 assay (IL-4 stimulated, Eotaxin-3 release)", "type": "cell-based", "conditions": "Homo sapiens, Hec50, 48 h", "method": "as §1, §2", "units": {"EC50": "µM"}, "values": [
      {"smiles": "Cc1cc(C(=O)N(C)C)cnc1C1=CCN(Cc2cc3c(-c4ccc(N)nn4)ccnc3n2C)CC1", "note": "[Example 1ae22, 1′-((4-(6-Aminopyridazin-3-yl)-1-methyl-1H-pyrrolo[2,3-b]pyridin-2-yl)methyl)-N,N,3-trimethyl-1′,2′,3′,6′-tetrahydro-[2,4′-bipyridine]-5-carboxamide]", "EC50": 0.392},
      {"smiles": "[2H]C([2H])([2H])N(C(=O)c1ccc(C2CCN([C@H](C)c3cc4c(-c5ccc(N)cn5)ccnc4n3C)CC2)c(C)c1)C([2H])([2H])[2H]", "note": "[Example 1af42, (R)-4-(1-(1-(4-(5-amino-pyridin-2-yl)-1-methyl-1H-pyrrolo[2,3-b]pyridin-2-yl)ethyl)piperidin-4-yl)-3-methyl-N,N-bis(methyl-d3)benzamide]", "EC50": 1.4},
      {"smiles": "[2H]C([2H])([2H])N(C(=O)c1ccc(C2CCN([C@@H](C)c3cc4c(-c5ccc(NCCOC)nc5)ccnc4n3C)CC2)cc1)C([2H])([2H])[2H]", "note": "[Example 1af50, (S)-4-(1-(1-(4-(6-((2-methoxyethyl)amino)pyridin-3-yl)-1-methyl-1H-pyrrolo[2,3-b]pyridin-2-yl)ethyl)piperidin-4-yl)-N,N-bis(methyl-d3)benzamide]", "EC50": 0.466},
      {"smiles": "[2H]C([2H])([2H])N(C(=O)c1ccc(C2=CCN([C@@H](C)c3cc4c(-c5ncc(N)cc5F)ccnc4n3C)CC2)cc1)C([2H])([2H])[2H]", "note": "[Example 1af51, (S)-4-(1-(1-(4-(5-Amino-3-fluoropyridin-2-yl)-1-methyl-1H-pyrrolo[2,3-b]pyridin-2-yl)ethyl)-1,2,3,6-tetrahydropyridin-4-yl)-N,N-bis(methyl-d3)benzamide]", "EC50": 1.67},
      {"smiles": "[2H]C([2H])([2H])N(C(=O)c1ccc(C2=CCN([C@@H](C)c3cc4c(-c5ncc(N)cc5C)ccnc4n3C)CC2)cc1)C([2H])([2H])[2H]", "note": "[Example 1af53, (S)-4-(1-(1-(4-(5-Amino-3-methylpyridin-2-yl)-1-methyl-1H-pyrrolo[2,3-b]pyridin-2-yl)ethyl)-1,2,3,6-tetrahydropyridin-4-yl)-N,N-bis(methyl-d3)benzamide]", "EC50": 0.765},
      {"smiles": "[2H]C([2H])([2H])N(C(=O)c1ccc(C2=CCN([C@@H](C)c3cc4c(-c5ccc(N)c(F)n5)ccnc4n3C)CC2)cc1)C([2H])([2H])[2H]", "note": "[Example 1af54, (S)-4-(1-(1-(4-(5-Amino-6-fluoropyridin-2-yl)-1-methyl-1H-pyrrolo[2,3-b]pyridin-2-yl)ethyl)-1,2,3,6-tetrahydropyridin-4-yl)-N,N-bis(methyl-d3)benzamide]", "EC50": 0.534},
      {"smiles": "[2H]C([2H])([2H])N(C(=O)c1ccc(C2=CCN([C@@H](C)c3cc4c(-c5cnc(N)cc5F)ccnc4n3C)CC2)cc1)C([2H])([2H])[2H]", "note": "[Example 1af55, (S)-4-(1-(1-(4-(6-Amino-4-fluoropyridin-3-yl)-1-methyl-1H-pyrrolo[2,3-b]pyridin-2-yl)ethyl)-1,2,3,6-tetrahydropyridin-4-yl)-N,N-bis(methyl-d3)benzamide]", "EC50": 0.426},
      {"smiles": "[2H]C([2H])([2H])N(C(=O)c1ccc(C2=CCN([C@@H](C)c3cc4c(-c5cnc(N)c(F)c5)ccnc4n3C)CC2)cc1)C([2H])([2H])[2H]", "note": "[Example 1af56, (S)-4-(1-(1-(4-(6-Amino-5-fluoropyridin-3-yl)-1-methyl-1H-pyrrolo[2,3-b]pyridin-2-yl)ethyl)-1,2,3,6-tetrahydropyridin-4-yl)-N,N-bis(methyl-d3)benzamide]", "EC50": 0.726},
      {"smiles": "[2H]C([2H])([2H])N(C(=O)c1ccc(C2=CCN([C@@H](C)c3cc4c(-c5ncc(N)cc5C(F)(F)F)ccnc4n3C)CC2)cc1)C([2H])([2H])[2H]", "note": "[Example 1af57, (S)-4-(1-(1-(4-(5-Amino-3-(trifluoromethyl)pyridin-2-yl)-1-methyl-1H-pyrrolo[2,3-b]pyridin-2-yl)ethyl)-1,2,3,6-tetrahydropyridin-4-yl)-N,N-bis(methyl-d3)benzamide]", "EC50": 17.9},
      {"smiles": "[2H]C([2H])([2H])N(C(=O)c1ccc(C2=CCN([C@@H](C)c3cc4c(-c5cnc(N)c(C)c5)ccnc4n3C)CC2)cc1)C([2H])([2H])[2H]", "note": "[Example 1af58, (S)-4-(1-(1-(4-(6-Amino-5-methylpyridin-3-yl)-1-methyl-1H-pyrrolo[2,3-b]pyridin-2-yl)ethyl)-1,2,3,6-tetrahydropyridin-4-yl)-N,N-bis(methyl-d3)benzamide]", "EC50": 0.638},
      {"smiles": "[2H]C([2H])([2H])N(C(=O)c1ccc(C2=CCN([C@@H](C)c3cc4c(-c5ccc(N)nn5)ccnc4n3C)CC2)cc1)C([2H])([2H])[2H]", "note": "[Example 1af59, (S)-4-(1-(1-(4-(6-aminopyridazin-3-yl)-1-methyl-1H-pyrrolo[2,3-b]pyridin-2-yl)ethyl)-1,2,3,6-tetrahydropyridin-4-yl)-N,N-bis(methyl-d3)benzamide]", "EC50": 0.26},
      {"smiles": "[2H]C([2H])([2H])N(C(=O)c1ccc(C2=CCN([C@@H](C)c3cc4c(-c5ccc(NC)nn5)ccnc4n3C)CC2)cc1)C([2H])([2H])[2H]", "note": "[Example 1af60, (S)—N,N-bis(methyl-d3)-4-(1-(1-(1-methyl-4-(6-(methylamino)pyridazin-3-yl)-1H-pyrrolo[2,3-b]pyridin-2-yl)ethyl)-1,2,3,6-tetrahydropyridin-4-yl)benzamide]", "EC50": 1.29},
      {"smiles": "[2H]C([2H])([2H])N(C(=O)c1ccc(C2CCN([C@@H](C)c3cc4c(-c5cnc(N)nn5)ccnc4n3C)CC2)cc1)C([2H])([2H])[2H]", "note": "[Example 1af64, (S)-4-(1-(1-(4-(3-amino-1,2,4-triazin-6-yl)-1-methyl-1H-pyrrolo[2,3-b]pyridin-2-yl)ethyl)piperidin-4-yl)-N,N-bis(methyl-d3)benzamide]", "EC50": 3.19},
      {"smiles": "[2H]C([2H])([2H])N(C(=O)c1ccc(C2CCN([C@@H](C)c3cc4c(-c5ccc(N)c(C)n5)ccnc4n3C)CC2)cc1)C([2H])([2H])[2H]", "note": "[Example 1af66, (S)-4-(1-(1-(4-(5-amino-6-methylpyridin-2-yl)-1-methyl-1H-pyrrolo[2,3-b]pyridin-2-yl)ethyl)piperidin-4-yl)-N,N-bis(methyl-d3)benzamide]", "EC50": 0.611},
      {"smiles": "[2H]C([2H])([2H])N(C(=O)c1ccc(C2CCN([C@@H](C)c3cc4c(-c5ccc(N)nc5OC)ccnc4n3C)CC2)cc1)C([2H])([2H])[2H]", "note": "[Example 1af67, (S)-4-(1-(1-(4-(6-amino-2-methoxypyridin-3-yl)-1-methyl-1H-pyrrolo[2,3-b]pyridin-2-yl)ethyl)piperidin-4-yl)-N,N-bis(methyl-d3)benzamide]", "EC50": 0.097},
      {"smiles": "[2H]C([2H])([2H])N(C(=O)c1ccc(C2CCN([C@@H](C)c3cc4c(-c5ncc(N)cc5OC)ccnc4n3C)CC2)cc1)C([2H])([2H])[2H]", "note": "[Example 1af68, (S)-4-(1-(1-(4-(5-amino-3-methoxypyridin-2-yl)-1-methyl-1H-pyrrolo[2,3-b]pyridin-2-yl)ethyl)piperidin-4-yl)-N,N-bis(methyl-d3)benzamide]", "EC50": 1.09}
    ]},
    {"molecular_target": "human STAT6 (Homo sapiens (Human), UniProt P42226)", "sequence (P42226 122-658)": "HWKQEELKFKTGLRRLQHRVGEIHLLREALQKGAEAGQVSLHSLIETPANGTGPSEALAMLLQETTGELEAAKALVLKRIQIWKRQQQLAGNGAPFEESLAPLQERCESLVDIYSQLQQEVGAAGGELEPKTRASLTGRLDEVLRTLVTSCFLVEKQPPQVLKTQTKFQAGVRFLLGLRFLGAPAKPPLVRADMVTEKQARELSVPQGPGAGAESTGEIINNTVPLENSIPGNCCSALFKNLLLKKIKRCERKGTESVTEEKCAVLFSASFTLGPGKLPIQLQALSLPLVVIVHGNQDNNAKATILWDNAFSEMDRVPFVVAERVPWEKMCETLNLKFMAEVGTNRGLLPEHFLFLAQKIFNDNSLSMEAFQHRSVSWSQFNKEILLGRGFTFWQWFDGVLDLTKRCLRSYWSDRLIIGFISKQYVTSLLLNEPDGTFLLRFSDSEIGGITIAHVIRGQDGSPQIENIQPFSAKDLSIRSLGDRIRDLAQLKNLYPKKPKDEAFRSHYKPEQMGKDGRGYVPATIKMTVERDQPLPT", "assay": "Surface plasmon resonance assay (Biacore 8K, binding to immobilized STAT6)", "conditions": "human STAT6 aa122-658, N-terminal His-tag, CM5 chip, 25° C.; geometric mean; read-out: STAT6 SPR Kd", "method_in_brief": "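Run at 25° C with His-tagged STAT6 aa122-658 (insect-cell expressed) amine-coupled to a CM5 chip, reference-subtracted, in PBS-P+ with 2% DMSO. Multi-cycle kinetics: 60 sec. contact, up to 300 sec. dissociation. Affinity fitted from late report-point binding isotherms, with Rmax both free and fixed to theoretical 1:1.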", "units": {"Kd": "µM"}, "values": [
      {"smiles": "CNc1ccc(-c2ccnc3c2cc(CN2CCC(c4ccc(C(=O)N(C)C)cc4)CC2)n3CC(C)(C)C)cn1", "note": "[Example 1x3, 4-[1-[[1-(2,2-Dimethylpropyl)-4-[6-(methylamino)-3-pyridyl]pyrrolo[2,3-b]pyridin-2-yl]methyl]-4-piperidyl]-N,N-dimethyl-benzamide]", "Kd": 5.28},
      {"smiles": "CNc1ccc(-c2ccnc3c2cc(C(C)N2CCC(c4ccc(C(=O)N(C)C)cc4)CC2)n3C)cn1", "note": "(stereo not shown) [Example 1z13, N,N-dimethyl-4-(1-(1-(1-methyl-4-(6-(methylamino)pyridin-3-yl)-1H-pyrrolo[2,3-b]pyridin-2-yl)ethyl)piperidin-4-yl)benzamide]", "Kd": 0.0223},
      {"smiles": "CN(C)C(=O)c1ccc(C2CCN(Cc3cc4c(-c5ccc(N)nc5)ccnc4n3C)CC2)cc1", "note": "[Example 1z19, 4-(1-((4-(6-aminopyridin-3-yl)-1-methyl-1H-pyrrolo[2,3-b]pyridin-2-yl)methyl)piperidin-4-yl)-N,N-dimethylbenzamide]", "Kd": 0.0223}
    ]}
  ]
}
